Activity calls are given as the source filed them. No cut-off for these calls is given here.
What was measured:
HT-29 [1] = experiment: Induction of apoptosis in human HT-29 cells assessed as increase in PARP cleavage at 0.3 to 3 micromol/L incubated for 48 hrs by Western blot analysis; type: functional, cell-based; details: dose 0.3-3 µmol/L
[2] = target: Tyrosine-protein kinase receptor TYRO3 (Homo sapiens) (UniProt Q06418); experiment: Inhibition of recombinant human GST-tagged TYRO3 (451-890 residues) expressed in insect cells at 2 uM using […] as substrate measured after 1 hr by Z'-LYTE assay relative to control; details: Insect cell
[3] = target: NT-3 growth factor receptor (Homo sapiens) (UniProt Q16288); experiment: Inhibition of recombinant human His-tagged NTRK3 (510-825 residues) expressed in baculovirus expression system at 2 uM using Tyr 01 as substrate measured after 1 hr by Z'-LYTE assay relative to control
Sequence of NT-3 growth factor receptor (Homo sapiens) (Q16288 32-839 limits assumed): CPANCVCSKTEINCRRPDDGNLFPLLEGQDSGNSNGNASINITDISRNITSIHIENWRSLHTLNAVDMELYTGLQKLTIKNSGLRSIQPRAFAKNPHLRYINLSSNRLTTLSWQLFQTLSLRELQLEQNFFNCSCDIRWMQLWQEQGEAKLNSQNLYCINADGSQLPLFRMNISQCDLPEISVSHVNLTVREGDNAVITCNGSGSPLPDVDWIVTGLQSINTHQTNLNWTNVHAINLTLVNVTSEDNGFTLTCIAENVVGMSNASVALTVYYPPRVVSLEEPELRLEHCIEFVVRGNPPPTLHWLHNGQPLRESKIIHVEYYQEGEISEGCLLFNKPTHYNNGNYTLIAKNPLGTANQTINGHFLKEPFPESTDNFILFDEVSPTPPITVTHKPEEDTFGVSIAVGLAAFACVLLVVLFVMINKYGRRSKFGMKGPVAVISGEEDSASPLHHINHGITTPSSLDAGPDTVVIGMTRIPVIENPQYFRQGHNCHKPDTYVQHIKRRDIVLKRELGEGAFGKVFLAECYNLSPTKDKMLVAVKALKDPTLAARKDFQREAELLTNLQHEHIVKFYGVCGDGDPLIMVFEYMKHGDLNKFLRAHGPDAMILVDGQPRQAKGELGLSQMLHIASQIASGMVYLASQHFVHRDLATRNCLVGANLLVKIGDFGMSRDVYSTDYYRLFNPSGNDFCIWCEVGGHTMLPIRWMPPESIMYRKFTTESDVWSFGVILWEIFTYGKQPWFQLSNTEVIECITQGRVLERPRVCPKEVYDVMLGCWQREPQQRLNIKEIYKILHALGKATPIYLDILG

[4] = target: Tyrosine-protein kinase Fer (Homo sapiens) (UniProt P16591); experiment: Inhibition of recombinant human His-tagged FER (541-822 residues) expressed in baculovirus expression system at 2 uM using Tyr 05 as substrate measured after 1 hr by Z'-LYTE assay relative to control
Sequence of Tyrosine-protein kinase Fer (Homo sapiens) (P16591 whole entry, looked up, the tested form may be a part): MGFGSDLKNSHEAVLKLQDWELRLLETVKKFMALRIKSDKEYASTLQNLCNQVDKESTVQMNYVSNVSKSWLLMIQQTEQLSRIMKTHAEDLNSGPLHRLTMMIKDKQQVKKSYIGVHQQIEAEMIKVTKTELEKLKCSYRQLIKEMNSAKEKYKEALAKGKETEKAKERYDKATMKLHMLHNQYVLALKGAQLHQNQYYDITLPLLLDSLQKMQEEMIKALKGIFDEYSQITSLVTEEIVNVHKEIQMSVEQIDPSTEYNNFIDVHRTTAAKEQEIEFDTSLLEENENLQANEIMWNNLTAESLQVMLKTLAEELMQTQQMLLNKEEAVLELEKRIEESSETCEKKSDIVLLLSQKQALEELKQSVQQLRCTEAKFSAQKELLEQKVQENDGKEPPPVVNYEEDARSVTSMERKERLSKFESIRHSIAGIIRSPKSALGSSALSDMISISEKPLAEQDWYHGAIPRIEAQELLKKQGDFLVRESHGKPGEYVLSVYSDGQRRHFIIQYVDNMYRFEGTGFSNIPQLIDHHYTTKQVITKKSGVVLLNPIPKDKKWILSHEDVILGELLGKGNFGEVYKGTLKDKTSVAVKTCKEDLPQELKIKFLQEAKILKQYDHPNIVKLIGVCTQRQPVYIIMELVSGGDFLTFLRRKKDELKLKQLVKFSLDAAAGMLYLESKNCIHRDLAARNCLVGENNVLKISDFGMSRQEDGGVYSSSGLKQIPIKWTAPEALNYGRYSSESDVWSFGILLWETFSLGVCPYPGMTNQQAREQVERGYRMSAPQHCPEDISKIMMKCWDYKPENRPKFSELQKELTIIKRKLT

HT-29 [5] = experiment: Antitumor activity against human HT-29 cells xenografted in female nude mouse model assessed as reduction in P-AKT at T308 level at 50 mg/kg, iv administered once a week and measured at least 8 hrs by immunoblot analysis; type: functional, organism-based
[6] = target: Receptor-type tyrosine-protein kinase FLT3 (Homo sapiens) (UniProt P36888); experiment: Inhibition of recombinant human His-tagged FLT3 (564-958 residues) expressed in insect cells at 2 uM using Tyr 02 as substrate measured after 1 hr by Z'-LYTE assay relative to control; details: Insect cell
[7] = target: Tyrosine-protein kinase Srms (Homo sapiens) (UniProt Q9H3Y6); experiment: Inhibition of recombinant human full length GST-tagged SRMS expressed in insect cells at 2 uM using Tyr 01 as substrate measured after 1 hr by Z'-LYTE assay relative to control; details: Insect cell
Sequence of Tyrosine-protein kinase Srms (Homo sapiens) (Q9H3Y6 whole entry): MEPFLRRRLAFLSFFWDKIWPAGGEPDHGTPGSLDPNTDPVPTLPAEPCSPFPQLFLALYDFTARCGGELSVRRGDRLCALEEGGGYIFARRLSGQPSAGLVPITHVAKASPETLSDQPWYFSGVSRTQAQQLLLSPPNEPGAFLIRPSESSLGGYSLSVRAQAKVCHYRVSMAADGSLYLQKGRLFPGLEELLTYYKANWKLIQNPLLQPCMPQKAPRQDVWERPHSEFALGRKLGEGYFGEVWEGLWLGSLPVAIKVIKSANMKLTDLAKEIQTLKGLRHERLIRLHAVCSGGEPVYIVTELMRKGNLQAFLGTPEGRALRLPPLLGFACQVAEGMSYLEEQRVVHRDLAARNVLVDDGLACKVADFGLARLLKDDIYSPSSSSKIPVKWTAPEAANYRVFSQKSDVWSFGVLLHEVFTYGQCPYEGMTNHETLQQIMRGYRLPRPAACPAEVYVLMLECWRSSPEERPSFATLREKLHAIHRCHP

U-87 MG = experiment: Antitumor activity against PTEN-null human U-87MG cells xenografted in female nude mouse model assessed as tumor growth delay at 25 to 50 mg/kg, po qd administered as 5 days on/2 days off regimen for 4 cycles; type: functional, organism-based; details: U-87MG ATCC, dose 25-50 mg/kg, time 28.0 day
[8] = target: Tyrosine-protein kinase ABL1 (Homo sapiens) (UniProt P00519); experiment: Inhibition of recombinant human full-length His-tagged ABL1 expressed in insect cells at 2 uM using Tyr 02 as substrate measured after 1 hr by Z'-LYTE assay relative to control; details: Insect cell
Sequence of Tyrosine-protein kinase ABL1 (Homo sapiens) (P00519 whole entry): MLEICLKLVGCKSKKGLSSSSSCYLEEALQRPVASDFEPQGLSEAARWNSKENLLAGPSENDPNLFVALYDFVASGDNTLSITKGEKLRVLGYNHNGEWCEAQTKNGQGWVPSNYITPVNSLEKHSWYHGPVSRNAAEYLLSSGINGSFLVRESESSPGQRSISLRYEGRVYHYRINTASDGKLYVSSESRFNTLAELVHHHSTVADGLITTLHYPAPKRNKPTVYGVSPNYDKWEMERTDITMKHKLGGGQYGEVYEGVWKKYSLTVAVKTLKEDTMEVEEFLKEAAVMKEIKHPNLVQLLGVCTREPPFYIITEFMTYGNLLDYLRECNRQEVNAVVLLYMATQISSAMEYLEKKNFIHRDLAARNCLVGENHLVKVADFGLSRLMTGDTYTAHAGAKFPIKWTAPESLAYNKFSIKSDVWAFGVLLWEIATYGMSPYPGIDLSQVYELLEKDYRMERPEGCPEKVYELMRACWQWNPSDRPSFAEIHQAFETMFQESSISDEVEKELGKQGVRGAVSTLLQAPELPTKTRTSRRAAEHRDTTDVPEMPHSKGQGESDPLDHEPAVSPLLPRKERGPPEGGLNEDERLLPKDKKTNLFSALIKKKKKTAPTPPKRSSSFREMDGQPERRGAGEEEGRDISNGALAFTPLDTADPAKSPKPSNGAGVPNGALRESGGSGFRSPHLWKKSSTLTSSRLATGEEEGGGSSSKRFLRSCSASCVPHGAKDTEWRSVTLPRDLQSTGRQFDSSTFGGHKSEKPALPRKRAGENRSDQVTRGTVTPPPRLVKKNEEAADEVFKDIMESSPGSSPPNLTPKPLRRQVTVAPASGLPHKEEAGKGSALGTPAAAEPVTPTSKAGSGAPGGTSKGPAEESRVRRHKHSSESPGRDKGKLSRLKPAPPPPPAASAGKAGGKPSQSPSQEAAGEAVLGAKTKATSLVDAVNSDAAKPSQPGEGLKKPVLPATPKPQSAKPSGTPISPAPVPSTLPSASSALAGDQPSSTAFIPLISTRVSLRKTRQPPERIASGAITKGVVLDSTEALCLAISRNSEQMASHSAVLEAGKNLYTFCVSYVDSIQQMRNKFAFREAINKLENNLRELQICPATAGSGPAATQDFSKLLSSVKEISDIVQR

[9] = target: Protein kinase C zeta type (Homo sapiens) (UniProt Q05513); experiment: Inhibition of recombinant human PRKCZ at 2 uM using Ser/Thr 07 as substrate measured after 1 hr by Z'-LYTE assay relative to control
Sequence of Protein kinase C zeta type (Homo sapiens) (Q05513 whole entry, the tested form may be a part): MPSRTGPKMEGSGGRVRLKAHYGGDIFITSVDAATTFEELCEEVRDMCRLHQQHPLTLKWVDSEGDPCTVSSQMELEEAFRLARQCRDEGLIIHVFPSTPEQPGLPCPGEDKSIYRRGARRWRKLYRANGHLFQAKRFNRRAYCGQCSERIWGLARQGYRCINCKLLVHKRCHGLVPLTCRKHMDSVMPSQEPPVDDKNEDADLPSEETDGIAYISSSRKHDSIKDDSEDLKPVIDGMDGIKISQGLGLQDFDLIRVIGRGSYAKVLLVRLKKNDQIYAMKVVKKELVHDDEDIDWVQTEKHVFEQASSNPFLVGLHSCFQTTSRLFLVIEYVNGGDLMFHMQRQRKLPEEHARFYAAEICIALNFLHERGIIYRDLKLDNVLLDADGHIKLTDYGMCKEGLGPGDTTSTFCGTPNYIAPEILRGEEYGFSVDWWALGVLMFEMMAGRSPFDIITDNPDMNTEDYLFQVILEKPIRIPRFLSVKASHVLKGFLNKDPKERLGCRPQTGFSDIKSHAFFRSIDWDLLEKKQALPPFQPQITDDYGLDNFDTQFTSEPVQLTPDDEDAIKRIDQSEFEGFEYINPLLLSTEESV

[10] = target: Muscle, skeletal receptor tyrosine-protein kinase (Homo sapiens) (UniProt O15146); experiment: Inhibition of recombinant human GST-tagged MUSK (519-869 residues) expressed in insect cells at 2 uM using Tyr 04 as substrate measured after 1 hr by Z'-LYTE assay relative to control; details: Insect cell
Sequence of Muscle, skeletal receptor tyrosine-protein kinase (Homo sapiens) (O15146 whole entry, the tested form may be a part): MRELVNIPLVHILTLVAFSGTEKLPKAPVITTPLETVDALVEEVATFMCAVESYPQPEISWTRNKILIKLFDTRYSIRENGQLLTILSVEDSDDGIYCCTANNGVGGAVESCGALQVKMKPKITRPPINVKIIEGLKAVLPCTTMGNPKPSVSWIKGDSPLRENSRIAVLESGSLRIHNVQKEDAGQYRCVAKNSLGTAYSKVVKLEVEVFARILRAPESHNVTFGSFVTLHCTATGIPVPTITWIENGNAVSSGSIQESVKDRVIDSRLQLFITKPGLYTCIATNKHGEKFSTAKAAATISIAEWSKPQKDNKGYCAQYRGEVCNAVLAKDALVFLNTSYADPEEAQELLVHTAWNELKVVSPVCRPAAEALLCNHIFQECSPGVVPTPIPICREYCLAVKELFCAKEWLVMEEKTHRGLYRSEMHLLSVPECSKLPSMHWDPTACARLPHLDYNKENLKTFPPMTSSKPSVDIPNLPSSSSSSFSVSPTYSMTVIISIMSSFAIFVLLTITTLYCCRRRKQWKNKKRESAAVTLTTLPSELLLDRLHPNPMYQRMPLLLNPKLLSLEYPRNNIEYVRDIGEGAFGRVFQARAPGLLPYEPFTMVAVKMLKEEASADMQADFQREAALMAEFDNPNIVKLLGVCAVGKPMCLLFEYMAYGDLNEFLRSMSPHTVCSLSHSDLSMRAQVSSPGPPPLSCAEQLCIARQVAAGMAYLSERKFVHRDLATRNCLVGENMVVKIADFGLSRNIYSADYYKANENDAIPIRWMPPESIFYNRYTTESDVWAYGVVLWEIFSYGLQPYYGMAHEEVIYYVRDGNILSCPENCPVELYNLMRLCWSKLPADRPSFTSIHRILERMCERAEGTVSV

[11] = target: Serine/threonine-protein kinase D3 (Homo sapiens) (UniProt O94806); experiment: Inhibition of recombinant human full length GST-tagged PRKCN expressed in insect cells at 2 uM using Ser/Thr 17 as substrate measured after 1 hr by Z'-LYTE assay relative to control; details: Insect cell

SMILES: CNC(=O)Nc1ccc(-c2nc(N3CC4CCC(C3)O4)c3cnn(C4CCC5(CC4)OCCO5)c3n2)cc1
- Activity (HT-29 [1]): inactive
- inhibition [2]: 9%
- inhibition [3]: 5%
- inhibition [4]: 5%
- Activity (HT-29 [5]): inactive
- inhibition [6]: 17%
- inhibition [7]: 7%
- Activity (U-87 MG): Active
- inhibition [8]: 4%
- inhibition [9]: 8%
- inhibition [10]: 15%
- inhibition [11]: 4%

Reference: ChEMBL document CHEMBL5696439 (Cancer Res, 2010)
